From US7381429B2, “Extracts from sophora species, method for producing the same and their use” (Dr. Willmar Schwabe GmbH & Co., priority 2000, dated 2008)

Legend:
Ishikawa-Var-I cells = settings: cited from earlier work
[1] = molecular target: T1, human α oestrogen receptor (Homo sapiens, UniProt P03372); assay: Reportergen assay for oestrogenic activity with transfected yeast cells; format: cell-based; settings: yeast cells expressing human α oestrogen receptor, β galactosidase reporter, 72 hours at 32° C.
T1 construct: expressed in transfected cells; host or cells: yeast cells (saccharomyces)
T1 sequence (P03372 1-595): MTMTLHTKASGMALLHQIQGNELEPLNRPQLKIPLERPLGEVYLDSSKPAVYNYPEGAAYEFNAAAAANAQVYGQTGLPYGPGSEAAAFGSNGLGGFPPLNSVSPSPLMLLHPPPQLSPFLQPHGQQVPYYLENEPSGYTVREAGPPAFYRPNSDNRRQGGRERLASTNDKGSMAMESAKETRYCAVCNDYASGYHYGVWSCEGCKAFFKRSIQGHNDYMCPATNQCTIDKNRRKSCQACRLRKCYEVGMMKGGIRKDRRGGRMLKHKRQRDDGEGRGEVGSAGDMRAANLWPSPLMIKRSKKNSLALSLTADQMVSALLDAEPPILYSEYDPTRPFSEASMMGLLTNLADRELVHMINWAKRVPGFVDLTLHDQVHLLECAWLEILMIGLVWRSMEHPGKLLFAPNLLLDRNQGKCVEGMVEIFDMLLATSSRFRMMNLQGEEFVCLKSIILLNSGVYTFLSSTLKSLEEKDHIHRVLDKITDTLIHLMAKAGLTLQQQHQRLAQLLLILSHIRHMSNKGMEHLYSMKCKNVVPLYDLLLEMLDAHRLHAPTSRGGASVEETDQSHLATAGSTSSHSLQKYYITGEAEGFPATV
Protocol: Testing the ethylacetate extracts produced for oestrogenic activity with transfected yeast cells, which express the human α oestrogen receptor.
The testing of extracts for oestrogenic properties was performed with a Reportergen assay, using yeast cells (saccharomyces). These cells are stable with the human α oestrogen receptor and an expression plasmid which contains an oestrogen response element and the gene for the enzyme β galactosidase. All samples were dissolved in DMSO at a concentration of 20 mg/ml, and were given undiluted or after diluting with DMSO at the ratio of 1/10, 1/100 or at a volume of 1 μl to 100 μl culture medium in 96-well flat-bottom micro-titre dishes. Next, 100 μl yeast suspension and the chromogenous substrate chlorophenolred-β-D-galactopyranoside were added. […] The yeast cells were incubated for 72 hours at 32° C., after which absorption of the medium was measured at 540 nm in a micro-titre dish photometer. The samples were sometimes checked twice.

[2] = animal studies; cited from earlier work

In the case of `CC(C)=CCc1c(O)cc(O)c2c1O[C@H](c1ccc(O)cc1)CC2=O` [8-prenylnaringenine], the “oestrogenic effect compared with 17β oestradiol” value (Ishikawa-Var-I cells; versus 17β oestradiol) is listed as “only a slightly weaker effect than 17β oestradiol” and the “oestrogenic potency compared with known phyto-oestrogens” value (Ishikawa-Var-I cells; versus coumestrol, genistein or daidzein) is listed as “significantly more active than the phyto-oestrogens known so far”.
With `OC[C@H]1O[C@@H](Oc2ccc3c(c2)OC[C@H]2c4cc5c(cc4O[C@@H]32)OCO5)[C@H](O)[C@@H](O)[C@@H]1O` [maackiain glucoside] the “oestrogenic activity in yeast assay” value [1] was “relevant to the effectiveness of the extract”.
In the case of `Oc1ccc2c(c1)OC[C@H]1c3cc4c(cc3O[C@@H]21)OCO4` [maackiain], the “oestrogenic activity in yeast assay” value [1] is reported as “relevant to the effectiveness of the extract”.
For `O=C1CCC[C@@H]2[C@H]3CCC[N+]4([O-])CCC[C@@H](CN12)[C@@H]34` (some centres unmarked) [oxymatrine], the toxic effects [2] is listed as “toxic effects could be shown”.
